# Earlier results in patent US20240188563A1, “CATHETER LOCK SOLUTIONS INCORPORATING NITRIC OXIDE RELEASING LIPOSOMES” (Becton, Dickinson and Company, priority 2022, published 2024).
# Test system: platelets
# Conditions: extracorporeal circuit
compound,measurement,value
"CC(=O)N[C@H](C(=O)O)C(C)(C)SN=O [SNAP only, S-nitroso-N-acetyl penicillamine]",Platelet count after 4 h (% of initial),vs. 50% (SNAP only)
